According to US9981976B2, “Piperidine substituted pyrazolo[1,5-A]pyrimidine derivatives with inhibitory activity on the replication of the respiratory syncytial virus (RSV)” (priority 2014, dated 2018):

Key:
rgRSV224 virus = assay: microbe, parasite or virus in culture; format: cell-based, respiratory syncytial virus (RSV); settings: for EC50: human respiratory syncytial virus, HeLa, 72 h, read-out: RSV HELA pEC50, rgRSV224 virus (MOI=1), HeLa cells, GFP expression three days post-virus exposure (converted)
HeLa cells = assay: Cytotoxicity in HeLa cells, ATP content (ATPlite kit); settings: three days incubation, CC50 = 50% concentration for cytotoxicity
Experimental: Black 384-well clear-bottom microtiter plates (Corning, Amsterdam, The Netherlands) were filled via acoustic drop ejection using the echo liquid handler (Labcyte, Sunnyvale, Calif.). 200 nL of compound stock solutions (100% DMSO) were transferred to the assay plates. 9 serial 4-fold dilutions of compound were made, creating per quadrant the same compound concentration. The assay was initiated by adding 10 μL of culture medium to each well (RPMI medium without phenol red, 10% FBS-heat inactivated, 0.04% gentamycin (50 mg/mL). All addition steps are done by using a multidrop dispenser (Thermo Scientific, Erembodegem, Belgium). Next, rgRSV224 virus (MOI=1) diluted in culture medium was added to the plates. rgRSV224 virus is an engineered virus that includes an additional GFP gene (Hallak L K, Spillmann D, Collins P L, Peeples M E. Glycosaminoglycan sulfation requirements for respiratory syncytial virus infection; Journal of virology (2000), 74(22), 10508-13) and was in-licensed from the NIH (Bethesda, Md., USA). Finally, 20 μL of a HeLa cell suspension (3,000 cells/well) were plated. Medium, virus- and mock-infected controls were included in each test. The wells contain 0.05% DMSO per volume. Cells were incubated at 37° C. in a 5% CO2 atmosphere. Three days post-virus exposure, viral replication was quantified by measuring GFP expression in the cells by an in house developed MSM laser microscope (Tibotec, Beerse, Belgium). The EC50 was defined as the 50% inhibitory concentration for GFP expression. In parallel, compounds were incubated for three days in a set of white 384-well microtiter plates (Corning) and the cytotoxicity of compounds in HeLa cells was determined by measuring the ATP content of the cells using the ATPlite kit (Perkin Elmer, Zaventem, Belgium) according to the manufacturer's instructions. The CC50 was defined as the 50% concentration for cytotoxicity.

Row | SMILES | melting point | EC50 (rgRSV224 virus) | SI TOX HELA (HeLa cells) | RSV HELA pEC50 (rgRSV224 virus; rgRSV224 virus (MOI=1), HeLa cells, GFP expression three days post-virus exposure)
1 | Cc1nnn(C)c1-c1nc(N2CCCCC2c2cc3nc(N4CCC4)cc(N4CCOCC4)n3n2)c2c(C)cccc2n1 (stereo not drawn) [P73, 4-(5-(azetidin-1-yl)-2-(1-(2-(1,4-dimethyl-1H-1,2,3-triazol-5-yl)-5-methylquinazolin-4-yl)piperidin-2-yl)pyrazolo[1,5-a]pyrimidin-7-yl)morpholine] | 238.91 °C | 126 nM | 4.8 | 
2 | Cc1ccc2ncnc(N3CCCCC3c3cc4nc(N5CC(O)C5)c(C)cn4n3)c2c1 (stereo not drawn) [P12, 1-(6-methyl-2-(1-(6-methylquinazolin-4-yl)piperidin-2-yl)pyrazolo-[1,5-a]pyrimidin-5-yl)azetidin-3-ol] | 233.08 °C | 200 nM | <4 | 
3 | Cc1ccc2ncnc(N3CCCCC3c3cc4nc(N5CCC5)cc(C)n4n3)c2c1 (stereo not drawn) [P21, 4-(2-(5-(azetidin-1-yl)-7-methylpyrazolo[1,5-a]pyrimidin-2-yl)-piperidin-1-yl)-6-methylquinazoline] | 192.43 °C | 398 nM | <4.6 | 
4 | Cc1ccc2ncnc(N3CCCCC3c3cc4nc(N5CCC5)c(C)cn4n3)c2c1 (stereo not drawn) [P11, 4-(2-(5-(azetidin-1-yl)-6-methylpyrazolo[1,5-a]pyrimidin-2-yl)-piperidin-1-yl)-6-methylquinazoline] | 205.49 °C | 126 nM | <4.6 | 
5 | Cc1cccc2ncnc(N3CCCC[C@@H]3c3cc4nc(N5CCC5)cc(N5CCOCC5)n4n3)c12 [P18, (R)-4-(5-(azetidin-1-yl)-2-(1-(5-methylquinazolin-4-yl)piperidin-2-yl)-pyrazolo[1,5-a]pyrimidin-7-yl)morpholine] |  | > 1000 nM | <4.3 | 
6 | CN(C)S(=O)(=O)NC(=O)c1nc(N2CCCCC2c2cc3nc(N4CCC4)cc(N4CCOCC4)n3n2)c2ccccc2n1 (stereo not drawn) [P36, 4-(2-(5-(azetidin-1-yl)-7-morpholinopyrazolo[1,5-a]pyrimidin-2-yl)-piperidin-1-yl)-N—(N,N-dimethylsulfamoyl)quinazoline-2-carboxamide] |  | 501 nM | <4 | 
7 | Cc1cccc2nc(C(=N)NO)nc(N3CCCCC3c3cc4nc(N5CCC5)cc(N5CCOCC5)n4n3)c12 (stereo not drawn) [P30, 4-(2-(5-(azetidin-1-yl)-7-morpholinopyrazolo[1,5-a]pyrimidin-2-yl)-piperidin-1-yl)-N-hydroxy-5-methylquinazoline-2-carboximidamide] |  | 631 nM | 4.6 | 
8 | Cc1ccc2ncnc(N3CCCCC3c3cc4nc(N5CCC(N)C5)ccn4n3)c2c1 (stereo in doubt) [P49, (3S)-1-(2-(1-(6-methylquinazolin-4-yl)piperidin-2-yl)pyrazolo[1,5-a]pyrimidin-5-yl)pyrrolidin-3-amine] |  | 794 nM | 4.3 | 
9 | Cc1nc2c(N3CCCCC3c3cc4nc(N5CCC5)cc(N5CCOCC5)n4n3)ncnc2o1 (stereo not drawn) [P65, 7-(2-(5-(azetidin-1-yl)-7-morpholinopyrazolo[1,5-a]pyrimidin-2-yl)-piperidin-1-yl)-2-methyloxazolo[5,4-d]pyrimidine] |  | 15.8 nM | <4.6 | 
10 | Cc1cccc2nc(O)nc(N3CCCCC3c3cc4nc(N5CCC5)cc(N5CCOCC5)n4n3)c12 (stereo not drawn) [P45, 4-(2-(5-(azetidin-1-yl)-7-morpholinopyrazolo[1,5-a]pyrimidin-2-yl)-piperidin-1-yl)-5-methylquinazolin-2-ol] |  | 200 nM | 4.2 | 
11 | COC(=O)N(C(=O)OC)c1nc(N2CCCCC2c2cc3nc(N4CCC4)cc(N4CCOCC4)n3n2)c2c(C)cccc2n1 (stereo not drawn) [P28, dimethyl (4-{2-[5-(azetidin-1-yl)-7-(morpholin-4-yl)pyrazolo[1,5-a]-pyrimidin-2-yl]piperidin-1-yl}-5-methylquinazolin-2-yl)imidodicarbonate] | 136.62 °C | 794 nM | <4 | 
12 | COCCOC(=O)Nc1nc(N2CCCCC2c2cc3nc(N4CCC4)cc(N4CCOCC4)n3n2)c2cc(N3CCOCC3)ccc2n1 (stereo not drawn) [P14, 2-methoxyethyl 4-(2-(5-(azetidin-1-yl)-7-morpholinopyrazolo[1,5-a]-pyrimidin-2-yl)piperidin-1-yl)-6-morpholinoquinazolin-2-ylcarbamate] |  | 794 nM | <4 | 
13 | Cc1nc2c(N3CCCCC3c3cc4nc(N5CCC5)cc(N5CCOCC5)n4n3)ncnc2s1 (stereo not drawn) [P20, 4-(5-(azetidin-1-yl)-2-(1-(2-methylthiazolo[5,4-d]pyrimidin-7-yl)-piperidin-2-yl)pyrazolo[1,5-a]pyrimidin-7-yl)morpholine] | 229.8 °C | 631 nM | 5.4 | 
14 | CCOc1cccc2ncnc(N3CCCCC3c3cc4nc(N5CCC5)cc(N5CCOCC5)n4n3)c12 (stereo not drawn) [P61, 4-(5-(azetidin-1-yl)-2-(1-(5-ethoxyquinazolin-4-yl)piperidin-2-yl)-pyrazolo[1,5-a]pyrimidin-7-yl)morpholine] |  | 31.6 nM | <4 | 
15 | Cc1ccc2nc(Cl)nc(N3CCCCC3c3cc4nc(N5CCC5)cc(N5CCOCC5)n4n3)c2c1 (stereo not drawn) [P5, 4-(5-(azetidin-1-yl)-2-(1-(2-chloro-6-methylquinazolin-4-yl)piperidin-2-yl)pyrazolo[1,5-a]pyrimidin-7-yl)morpholine] |  | 251 nM | <5 | 
16 | Cc1cccc2nc(C(=O)NS(=O)(=O)C3CC3)nc(N3CCCCC3c3cc4nc(N5CCC5)cc(N5CCOCC5)n4n3)c12 (stereo not drawn) [P71, 4-(2-(5-(azetidin-1-yl)-7-morpholinopyrazolo[1,5-a]pyrimidin-2-yl)-piperidin-1-yl)-N-(cyclopropylsulfonyl)-5-methylquinazoline-2-carboxamide] |  | 398 nM | <4 | 
17 | Clc1ccc2ncnc(N3CCCC[C@H]3c3cc4nc(N5CCC5)cc(N5CCOCC5)n4n3)c2c1 [P2, (S)-4-(5-(azetidin-1-yl)-2-(1-(6-chloroquinazolin-4-yl)piperidin-2-yl)-pyrazolo[1,5-a]pyrimidin-7-yl)morpholine] |  | 316 nM | 4.4 | 
18 | Cc1cn2nc(C3CCCCN3c3ncnc4cccc(C)c34)cc2nc1N1CC[C@@H](N)C1 (stereo in doubt) [P48, (3 S)-1-(6-methyl-2-(1-(5-methylquinazolin-4-yl)piperidin-2-yl)-pyrazolo[1,5-a]pyrimidin-5-yl)pyrrolidin-3-amine] |  | 12.6 nM | 4.5 | 
19 | CNC(=O)c1nc(N2CCCCC2c2cc3nc(N4CCC4)cc(N4CCOCC4)n3n2)c2c(C)cccc2n1 (stereo not drawn) [P70, 4-(2-(5-(azetidin-1-yl)-7-morpholinopyrazolo[1,5-a]pyrimidin-2-yl)-piperidin-1-yl)-N,5-dimethylquinazoline-2-carboxamide] |  | 631 nM | 4.3 | 
20 | Cc1ccc2nc(NS(C)(=O)=O)nc(N3CCCC[C@H]3c3cc4nc(N5CCC5)cc(N5CCOCC5)n4n3)c2c1 [P8, (S)—N-(4-(2-(5-(azetidin-1-yl)-7-morpholinopyrazolo[1,5-a]pyrimidin-2-yl)piperidin-1-yl)-6-methylquinazolin-2-yl)methanesulfonamide] |  | 7.94 nM | <4 | 
21 | CS(=O)(=O)Nc1nc(N2CCCC[C@@H]2c2cc3nc(N4CCC4)cc(N4CCOCC4)n3n2)c2cc(Cl)ccc2n1 [P34, (R)—N-(4-(2-(5-(azetidin-1-yl)-7-morpholinopyrazolo[1,5-a]-pyrimidin-2-yl)piperidin-1-yl)-6-chloroquinazolin-2-yl)methanesulfonamide] |  | 631 nM | 4.3 | 
22 | Cc1ccc2nc(NS(C)(=O)=O)nc(N3CCCC[C@@H]3c3cc4nc(N5CCC5)cc(N5CCOCC5)n4n3)c2c1 [P7, (R)—N-(4-(2-(5-(azetidin-1-yl)-7-morpholinopyrazolo[1,5-a]pyrimidin-2-yl)-piperidin-1-yl)-6-methylquinazolin-2-yl)methanesulfonamide] |  | 2000 nM | <4 | 
23 | Cc1nc(N2CCCCC2c2cc3nc(N4CC(N)C4)c(C)cn3n2)c2c(C)cccc2n1 (stereo not drawn) [P27, 1-(2-(1-(2,5-dimethylquinazolin-4-yl)piperidin-2-yl)-6-methyl-pyrazolo[1,5-a]pyrimidin-5-yl)azetidin-3-amine] | 176.85 °C | 631 nM | 4.5 | 
24 | Clc1cccc2ncnc(N3CCCCC3c3cc4nc(N5CCC5)cc(N5CCOCC5)n4n3)c12 (stereo not drawn) [P35, 4-(5-(azetidin-1-yl)-2-(1-(5-chloroquinazolin-4-yl)piperidin-2-yl)-pyrazolo[1,5-a]pyrimidin-7-yl)morpholine] |  | 63.1 nM | 4.4 | 
25 | CS(=O)(=O)Nc1nc(N2CCCC[C@H]2c2cc3nc(N4CCC4)cc(N4CCOCC4)n3n2)c2cc(Cl)ccc2n1 (stereo in doubt) [P32, N-(4-(2-(5-(azetidin-1-yl)-7-morpholinopyrazolo[1,5-a]pyrimidin-2-yl)piperidin-1-yl)-6-chloroquinazolin-2-yl)methanesulfonamide] |  |  | <4 | 7.3
26 | Cc1cn2nc(C3CCCCN3c3nc(Cl)nc4cccc(C)c34)cc2nc1N1CC(O)C1 (stereo not drawn) [P40, 1-(2-(1-(2-chloro-5-methylquinazolin-4-yl)piperidin-2-yl)-6-methylpyrazolo[1,5-a]pyrimidin-5-yl)azetidin-3-ol] |  | 158 nM | 4.7 | 
27 | CCOc1nc(N2CCCCC2c2cc3nc(N4CCC4)cc(N4CCOCC4)n3n2)c2cccnc2n1 (stereo not drawn) [P16, 4-(5-(azetidin-1-yl)-2-(1-(2-ethoxypyrido[2,3-d]pyrimidin-4-yl)-piperidin-2-yl)pyrazolo[1,5-a]pyrimidin-7-yl)morpholine] |  | 79.4 nM | 4.3 | 
28 | Fc1cccc2ncnc(N3CCCCC3c3cc4nc(N5CCC5)cc(N5CCOCC5)n4n3)c12 (stereo not drawn) [P60, 4-(5-(azetidin-1-yl)-2-(1-(5-fluoroquinazolin-4-yl)piperidin-2-yl)-pyrazolo[1,5-a]pyrimidin-7-yl)morpholine] |  | 126 nM | 4.3 | 
